Reference: PubChem BioAssay (NCI)
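Results reflect a 48-hour exposure of cells in 96-well plates to compound at five concentrations. At the TGI there is no net growth.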

Tests used:
Assay in all cases: NCI tumour cell line growth inhibition, 48 h
[1] = system: HOP-92 NSCLC
[2] = system: NCI-H460 lung
[3] = system: U251 CNS
[4] = system: DU-145 prostate
[5] = system: A498 renal
[6] = system: EKVX NSCLC
[7] = system: MDA-MB-231 breast
[8] = system: HL-60(TB) leukemia
[9] = system: CAKI-1 renal
[10] = system: SN12C renal
[11] = system: HOP-62 NSCLC

Structure (SMILES)	TGI [1] [µM]	TGI [2] [µM]	TGI [3] [µM]	TGI [4] [µM]	TGI [5] [µM]	TGI [6] [µM]	TGI [7] [µM]	TGI [8] [µM]	TGI [9] [µM]	TGI [10] [µM]	TGI [11] [µM]
CCOC(=O)C(=O)C(CCC(=O)c1ccc2ccccc2c1O)C(=O)OCC (configuration not stated)	> 100	> 100	> 100	> 100	> 100	> 100	> 100	> 100	> 100	> 100	–
CC(C)(C)C1CCC2c3c([nH]c4ccccc34)C3C(=O)N(c4ccc5c(c4)C(=O)c4ccccc4C5=O)C(=O)C3C2C1 (configuration not stated)	–	> 100	> 100	> 100	> 100	> 100	> 100	> 100	> 100	> 100	> 100
CCc1cc2c(oc3cc(C)ccc32)c(=O)n1C	> 10	> 10	> 10	> 10	–	> 10	> 10	> 10	–	> 10	–
COc1ccc(N=[N+]([O-])c2ccc(OC)cc2)cc1	> 100	> 100	> 100	> 100	> 100	> 100	> 100	–	> 100	–	> 100
CCC(=O)C(C(C)/C=C/CCSc1ccccc1)C(O)CCCCCC(=O)OC (configuration not stated)	> 100	> 100	> 100	> 100	–	> 100	> 100	–	> 100	> 100	> 100
C=CCN1CN(c2ccccc2)C2(CCN(CCCC3(c4ccc(F)cc4)OCCO3)CC2)C1=O	–	–	29.4	61.1	–	40.1	33.7	29	75.6	32	36
CC1=NN=C(N)NC1=CC(Sc1ccc(Cl)cc1)c1c(O)ccc2ccccc12 (configuration not stated)	> 78.5	45.1	76.8	> 84.6	37.5	69	56.5	–	> 69.6	97.3	57.7
COc1ccc(CCNCCCC2c3ccccc3-c3ccccc32)cc1OC	18.2	18.3	26.2	28.9	19.5	30.8	–	47.7	33.4	28.7	30
CCOP(=O)(OCC)/C(C#N)=C/c1ccnc2ccccc12	43.7	> 100	> 100	> 100	> 100	> 100	58.2	–	80.3	88.2	> 100
FC1=C2CCCCCC2SC1(F)F (configuration not stated)	70.2	–	–	> 100	–	> 100	> 100	33.9	> 100	–	–
CCCC[C@H]1CCN2C[C@@H](O)[C@@H](O)[C@H]2[C@@H]1O	> 100	> 100	> 100	> 100	> 100	> 100	> 100	> 100	> 100	> 100	–
N#Cc1sc2c(c1O)c(=O)n(-c1ccccc1)c(=S)n2-c1ccccc1	> 100	> 100	> 100	> 100	–	–	> 100	> 100	–	> 100	–
